Reference: paper PMC6114901, “An automated screening method for detecting compounds with goitrogenic activity using transgenic zebrafish embryos” (PLoS ONE, 2018)
Like-named read-outs stand apart in the source and are kept apart here.

Tests used:
[1] = test system: thyroglobulin (tg:mCherry reporter gene); experiment: animal or person; conditions: for EC50: read-out: EC50 (tg:mCherry induction)
Procedure: In order to avoid interference of test chemicals with early thyroid gland development, zebrafish embryos were cultured in exposure medium until 48 hours post fertilization (hpf). Subsequently, they were exposed to seven known thyroid endocrine disrupters for 3 days (48 to 120 hpf). The non-goitrogenic compound 3,4-dichloroaniline, that is used as reference compound in the zebrafish acute embryo toxicity test was used as negative control. […] No solvents were used. […] Five concentrations and one control were tested per compound and replicate. In the second replicate the range of concentration was adjusted to improve fitting of concentration-response curves. […] Given the lack of appropriate spectral properties stability of exposure concentrations was not analysed for potassium perchlorate. Embryos were kept in the incubator at 26°C and a 14:10 hours light:dark cycle. The exposure was conducted in crystallisation dishes covered with watchmaker glasses with 30 embryos in 30 ml exposure medium (for exposure medium refer to [26]).
Embryos were positioned ventrally toward the microscope objective. Per embryo a bright field image, an autofocus fluorescence image and a Z-stack of 9 images were obtained. The Z-stack was required in case of autofocus failure and manual selection of the focal plane. Fluorescence images were obtained with 400 ms of fluorescent light exposure at maximal light intensity and a gain of 1. […] However, care was taken, that at least 10 images per concentration and replicates were assessed. To avoid a time bias during the analysis the sequence of wells for analysis was arranged in order to obtain a uniform distribution over the entire period of analysis.
The images were analysed using a KNIME workflow (Version 3.3.3., [29]) with the extension “KNIME image processing”. In brief, images were loaded into the workflow and the background was removed automatically using the “rolling ball” procedure of the image J plugin (rolling ball size set to 50 pixels). Subsequently the area containing the thyroid gland was manually selected by drawing a rectangle around the appropriate region using the interactive annotation node. […] If possible the autofocus images were used. In case that the thyroid gland was out of focus due to the presence of autofluorescing pigment cells, an appropriate image from the Z-stack was selected. All subsequent steps were conducted without any user interaction. […] Finally the sum of pixel (reflecting area of the thyroid gland and intensity of fluorescence) was calculated for the labeled area and used as a proxy of fluorescence intensity (see Fig 1 for an overview of the workflow). For each replicate the sum was of pixels was normalized by setting controls to the value of one. For data of individual embryos see S4 Table. The KNIME workflow used for image analysis is provided as supplement file (S1 Workflow).
To characterize the potency of the investigated goitrogenic compounds, we calculated EC50 values of tg:mcherry fluorescence using the pixel sum obtained from image analysis. For each replicate the fluorescence intensity was normalized by dividing the mean fluorescence intensity of each concentration with the mean control fluorescence intensity. Concentration-response curves of tgmcherry fluorescence were fitted to the data using the Hill-slope equation (Eq 1) and used to estimate EC50 values.
The parameter Min was set to 1 and the slope (p) and the maximum fluorescence (Max) were estimated.

[2] = ref chemspider (http://www.chemspider.com); cited from earlier work
[3] = test system: thyroid hormone levels (T4); conditions: cited from earlier work; for EC50: read-out: EC50 T4 reduction
[4] = test system: zebrafish embryos; experiment: in vivo; conditions: for Slope: mortality concentration-response curve
Procedure: Fish embryo acute toxicity tests were performed similar as described previously, using 10 or 25 embryos per concentration and replicate exposed in crystallization dishes from 48 to 120 hpf. No exchange of exposure media was performed. Lethality was identified by coagulation, missing heartbeat, a non–detached tail and/or missing of somites. Raw data for mortality and phenotypic assessment are provided as S1 Table. Concentration-response curves for mortality are shown in S2 Fig.

[5] = reduction of thyroid hormone levels (immunostaining), ref Thienpont et al. [13]
[6] = 72 hpf, 17777.78 µmol/L, replicate 2, 10 embryos
[7] = 72 hpf, 26666.67 µmol/L, replicate 2, 10 embryos
[8] = 72 hpf, 40000.00 µmol/L, replicate 2, 10 embryos
[9] = 72 hpf, 60000.00 µmol/L, replicate 2, 10 embryos
[10] = 72 hpf, 90000.00 µmol/L, replicate 2, 10 embryos
[11] = 96 hpf, 17777.78 µmol/L, replicate 2, 10 embryos
[12] = 96 hpf, 26666.67 µmol/L, replicate 2, 10 embryos
[13] = 96 hpf, 40000.00 µmol/L, replicate 2, 10 embryos
[14] = 96 hpf, 60000.00 µmol/L, replicate 2, 10 embryos
[15] = 96 hpf, 90000.00 µmol/L, replicate 2, 10 embryos
[16] = 120 hpf, 5625.00 µmol/L, replicate 1, 25 embryos
[17] = 120 hpf, 11250.00 µmol/L, replicate 1, 25 embryos
[18] = 120 hpf, 17777.78 µmol/L, replicate 2, 10 embryos
[19] = 120 hpf, 22500.00 µmol/L, replicate 1, 25 embryos
[20] = 120 hpf, 26666.67 µmol/L, replicate 2, 10 embryos
[21] = 120 hpf, 40000.00 µmol/L, replicate 2, 10 embryos
[22] = 120 hpf, 45000.00 µmol/L, replicate 1, 25 embryos
[23] = 120 hpf, 60000.00 µmol/L, replicate 2, 10 embryos
[24] = 120 hpf, 90000.00 µmol/L, replicate 1, 25 embryos
[25] = 120 hpf, 90000.00 µmol/L, replicate 2, 10 embryos

## S=C1NCCN1 [Ethylenethiourea, N, N’-ethylenethiourea]
[1]; Danio rerio
  EC50: 366 µM
[1]; zebrafish, in vivo
  BMD 20: 246 µM
  Slope: 3.8
[2]
  Log D (pH 7.4): -0.52
[3]; [5]
  EC50: 135 µM

## Oc1cc(O)cc(O)c1 [Phloroglucinol, phloroglucinol]
[1]; Danio rerio
  EC50: 1100 µM
[1]; zebrafish, in vivo
  BMD 20: 252 µM
  Slope: 0.89
[2]
  Log D (pH 7.4): 0.24
[3]; [5]
  EC50: 2700 µM
[3]; thyroid disruption index based on T4 reduction, ref Thienpont et al. [13]
  TDI (T4): 32

## CCCc1cc(=O)[nH]c(=S)[nH]1 [Propylthiouracil, 6-propyl-2-thiouracil]
[1]; Danio rerio
  EC50: 334 µM
[1]; zebrafish, in vivo
  BMD 20: 163 µM
  Slope: 1.7
[3]; zebrafish, in vivo
  EC50: 137 µM
  TDI (T4): 20

## c1cn[nH]c1 [Pyrazole, pyrazole]
[1]; zebrafish, in vivo
  EC50: 637 µM
  BMD 20: 399 µM
  Slope: 5.7
  TDI: 67
[4]; [6]
  No Surviving: 10
  No hatched: 0
[4]; [7]
  No Surviving: 10
  No hatched: 0
[4]; [8]
  No Surviving: 10
  No hatched: 0
  Total Sublethal: 3
  nobc (no blood circulation): 3
[4]; [9]
  No Surviving: 0
  No hatched: 0
  nohb (no heartbeat): 10
[4]; [10]
  No Surviving: 0
  No hatched: 0
  nohb (no heartbeat): 10
[4]; [11]
  No Surviving: 10
  No hatched: 10
[4]; [12]
  No Surviving: 10
  No hatched: 8
[4]; [13]
  No Surviving: 10
  No hatched: 9
  Total Sublethal: 10
  nomov (no spontaneous movement): 10
[4]; [14]
  No Surviving: 0
  No hatched: 0
  k/f (coagulated): 5
  nohb (no heartbeat): 5
[4]; [15]
  No Surviving: 0
  No hatched: 0
  k/f (coagulated): 10
[4]; [16]
  No Surviving: 25
  Sublethal effects Total Sublethal: 1
[4]; [17]
  No Surviving: 25
  Sublethal effects Total Sublethal: 1
[4]; [18]
  No Surviving: 10
  No hatched: 10
[4]; [19]
  Lethal effects k/f: 2
  No Surviving: 23
  Sublethal effects Total Sublethal: 12
[4]; [20]
  No Surviving: 10
  No hatched: 9
  Sublethal effects Total Sublethal: 4
  Sublethal effects mch: 1
  Sublethal effects nomov: 4
[4]; [21]
  No Surviving: 10
  No hatched: 9
  Sublethal effects EdY / EdP: 9
  Sublethal effects Total Sublethal: 10
  Sublethal effects nobc: 4
  Sublethal effects nomov: 8
[4]; [22]
  Lethal effects k/f: 25
  No Surviving: 0
[4]; [23]
  Lethal effects k/f: 10
  No Surviving: 0
  No hatched: 0
[4]; [24]
  Lethal effects k/f: 25
  No Surviving: 0
[4]; [25]
  Lethal effects k/f: 10
  No Surviving: 0
  No hatched: 0
[4]; mortality after 24 h of exposure, S2 Fig, unit inferred
  LC50: 49000 µM
[4]; mortality after 48 h of exposure, S2 Fig, unit inferred
  LC50: 49000 µM
[4]; 24 h of exposure
  Slope: 56.2
[4]; 48 h of exposure
  Slope: 56.2
[4]; 72 h of exposure
  Slope: 132
[4]; read-out: LC50 (48–120 hpf), mortality, embryos exposed 48–120 hpf
  LC50: 42400 µM
[2]
  Log D (pH 7.4): 0.43
